Measurements as given in the NIST ThermoML archive (doi:10.1016/j.jct.2005.03.012).
± gives the expanded uncertainty stated by the source.

Assay: molar heat capacity at constant pressure
Settings: Liquid, Flow calorimetry

CO [methanol]
molar heat capacity at constant pressure [J/K/mol]
Settings | 248.15 K | 273.15 K | 298.15 K | 323.15 K | 348.15 K | 373.15 K | 398.15 K | 423.15 K | 473.15 K
500 kPa | 74.02 ± 0.26 | 77.03 ± 0.26 | 81.39 ± 0.29 | 86.87 ± 0.29 | 93.66 ± 0.32 | 101.83 ± 0.35 | – | – | –
1000 kPa | 74.02 ± 0.26 | 77 ± 0.26 | 81.35 ± 0.29 | 86.8 ± 0.29 | 93.59 ± 0.32 | 101.76 ± 0.35 | 111.86 ± 0.38 | – | –
2500 kPa | 73.95 ± 0.26 | 76.93 ± 0.26 | 81.19 ± 0.29 | 86.64 ± 0.29 | 93.43 ± 0.32 | 101.41 ± 0.35 | 111.28 ± 0.38 | 122.98 ± 0.42 | –
5000 kPa | 73.89 ± 0.26 | 76.84 ± 0.26 | 81.07 ± 0.29 | 86.45 ± 0.29 | 93.18 ± 0.32 | 101 ± 0.35 | 110.38 ± 0.38 | 121.41 ± 0.42 | 162.32 ± 0.54
7500 kPa | 73.79 ± 0.26 | 76.8 ± 0.26 | 81.03 ± 0.29 | 86.29 ± 0.29 | 92.92 ± 0.32 | 100.64 ± 0.35 | 109.58 ± 0.35 | 120.03 ± 0.42 | 152.94 ± 0.51
10000 kPa | 73.79 ± 0.26 | 76.77 ± 0.26 | 80.91 ± 0.26 | 86.13 ± 0.29 | 92.73 ± 0.32 | 100.23 ± 0.32 | 108.97 ± 0.35 | 118.84 ± 0.38 | 146.91 ± 0.48
12500 kPa | 73.76 ± 0.26 | 76.74 ± 0.26 | 80.91 ± 0.26 | 86 ± 0.29 | 92.41 ± 0.32 | 99.97 ± 0.32 | 108.33 ± 0.35 | 117.85 ± 0.38 | 142.75 ± 0.48
